Results from PubChem BioAssay (NCI).
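These data come from cells grown in 96-well plates and exposed to compound for 48 hours at five concentrations. TGI marks complete inhibition of growth.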

Key:
Test in all cases: NCI tumour cell line growth inhibition, 48 h
SK-OV-3 ovarian = system: SK-OV-3 ovarian
NCI-H226 lung = system: NCI-H226 lung
ACHN renal = system: ACHN renal
EKVX NSCLC = system: EKVX NSCLC
HT29 colon = system: HT29 colon
IGROV1 ovarian = system: IGROV1 ovarian
SNB-19 CNS = system: SNB-19 CNS
OVCAR-5 ovarian = system: OVCAR-5 ovarian
SK-MEL-28 melanoma = system: SK-MEL-28 melanoma
HOP-92 NSCLC = system: HOP-92 NSCLC
UACC-257 melanoma = system: UACC-257 melanoma
HL-60(TB) leukemia = system: HL-60(TB) leukemia
OVCAR-4 ovarian = system: OVCAR-4 ovarian
CAKI-1 renal = system: CAKI-1 renal
K-562 leukemia = system: K-562 leukemia
HCT-15 colon = system: HCT-15 colon
HS 578T breast = system: HS 578T breast
SR leukemia = system: SR leukemia
SF-539 CNS = system: SF-539 CNS
SNB-75 CNS = system: SNB-75 CNS
SF-295 CNS = system: SF-295 CNS
A549 NSCLC = system: A549 NSCLC
HOP-62 NSCLC = system: HOP-62 NSCLC
TK-10 renal = system: TK-10 renal
NCI/ADR-RES ovarian = system: NCI/ADR-RES ovarian
LOX IMVI melanoma = system: LOX IMVI melanoma
MDA-MB-231 breast = system: MDA-MB-231 breast
HCT-116 colon = system: HCT-116 colon
PC-3 prostate = system: PC-3 prostate
CCRF-CEM leukemia = system: CCRF-CEM leukemia
MALME-3M melanoma = system: MALME-3M melanoma
SW-620 colon = system: SW-620 colon
OVCAR-8 ovarian = system: OVCAR-8 ovarian
SK-MEL-5 melanoma = system: SK-MEL-5 melanoma
786-0 renal = system: 786-0 renal
UACC-62 melanoma = system: UACC-62 melanoma
NCI-H522 lung = system: NCI-H522 lung
MCF7 breast = system: MCF7 breast
UO-31 renal = system: UO-31 renal
MOLT-4 leukemia = system: MOLT-4 leukemia
T-47D breast = system: T-47D breast
KM12 colon = system: KM12 colon
RXF 393 renal = system: RXF 393 renal
RPMI-8226 leukemia = system: RPMI-8226 leukemia
SK-MEL-2 melanoma = system: SK-MEL-2 melanoma
NCI-H23 lung = system: NCI-H23 lung
BT-549 breast = system: BT-549 breast
COLO 205 colon = system: COLO 205 colon
A498 renal = system: A498 renal
M14 melanoma = system: M14 melanoma
DU-145 prostate = system: DU-145 prostate
MDA-N = system: MDA-N
OVCAR-3 ovarian = system: OVCAR-3 ovarian
SN12C renal = system: SN12C renal
U251 CNS = system: U251 CNS
MDA-MB-435 = system: MDA-MB-435
SF-268 CNS = system: SF-268 CNS
NCI-H460 lung = system: NCI-H460 lung

CC(C)C(Br)C(=O)NCC(=O)O (stereo not given)
TGI (SK-OV-3 ovarian): > 100 µM
TGI (NCI-H226 lung): > 100 µM
TGI (ACHN renal): > 100 µM
TGI (EKVX NSCLC): > 100 µM
TGI (HT29 colon): > 100 µM
TGI (IGROV1 ovarian): > 100 µM
TGI (SNB-19 CNS): > 100 µM
TGI (OVCAR-5 ovarian): > 100 µM
TGI (SK-MEL-28 melanoma): > 100 µM
TGI (HOP-92 NSCLC): > 100 µM
TGI (UACC-257 melanoma): > 100 µM
TGI (HL-60(TB) leukemia): > 100 µM
TGI (OVCAR-4 ovarian): > 100 µM
TGI (CAKI-1 renal): > 100 µM
TGI (K-562 leukemia): > 100 µM
TGI (HCT-15 colon): > 100 µM
TGI (HS 578T breast): > 100 µM
TGI (SR leukemia): > 100 µM
TGI (SF-539 CNS): > 100 µM
TGI (SNB-75 CNS): > 100 µM
TGI (SF-295 CNS): > 100 µM
TGI (A549 NSCLC): > 100 µM
TGI (HOP-62 NSCLC): > 100 µM
TGI (TK-10 renal): > 100 µM
TGI (NCI/ADR-RES ovarian): > 100 µM
TGI (LOX IMVI melanoma): > 100 µM
TGI (MDA-MB-231 breast): > 100 µM
TGI (HCT-116 colon): > 100 µM
TGI (PC-3 prostate): > 100 µM
TGI (CCRF-CEM leukemia): > 100 µM
TGI (MALME-3M melanoma): > 100 µM
TGI (SW-620 colon): > 100 µM
TGI (OVCAR-8 ovarian): > 100 µM
TGI (SK-MEL-5 melanoma): > 100 µM
TGI (786-0 renal): > 100 µM
TGI (UACC-62 melanoma): > 100 µM
TGI (NCI-H522 lung): > 100 µM
TGI (MCF7 breast): > 100 µM
TGI (UO-31 renal): > 100 µM
TGI (MOLT-4 leukemia): > 100 µM
TGI (T-47D breast): > 100 µM
TGI (KM12 colon): > 100 µM
TGI (RXF 393 renal): > 100 µM
TGI (RPMI-8226 leukemia): > 100 µM
TGI (SK-MEL-2 melanoma): > 100 µM
TGI (NCI-H23 lung): > 100 µM
TGI (BT-549 breast): > 100 µM
TGI (COLO 205 colon): > 100 µM
TGI (A498 renal): > 100 µM
TGI (M14 melanoma): > 100 µM
TGI (DU-145 prostate): > 100 µM
TGI (MDA-N): > 100 µM
TGI (OVCAR-3 ovarian): > 100 µM
TGI (SN12C renal): > 100 µM
TGI (U251 CNS): > 100 µM
TGI (MDA-MB-435): > 100 µM
TGI (SF-268 CNS): > 100 µM
TGI (NCI-H460 lung): > 100 µM

CC(C)(C)OC(=O)NCC(c1c[nH]c2ccccc12)c1c[nH]c2ccccc12
TGI (SK-OV-3 ovarian): 33.5 µM
TGI (NCI-H226 lung): 44 µM
TGI (ACHN renal): > 100 µM
TGI (EKVX NSCLC): 26.2 µM
TGI (HT29 colon): 29.8 µM
TGI (IGROV1 ovarian): 26.3 µM
TGI (SNB-19 CNS): 31.1 µM
TGI (OVCAR-5 ovarian): 31.4 µM
TGI (SK-MEL-28 melanoma): 35.3 µM
TGI (HOP-92 NSCLC): 27.5 µM
TGI (UACC-257 melanoma): 28.6 µM
TGI (HL-60(TB) leukemia): 31.8 µM
TGI (OVCAR-4 ovarian): 26.5 µM
TGI (CAKI-1 renal): 29.1 µM
TGI (HCT-15 colon): 53.5 µM
TGI (HS 578T breast): 57.8 µM
TGI (SR leukemia): 32.4 µM
TGI (SF-539 CNS): 35.4 µM
TGI (SNB-75 CNS): 28.1 µM
TGI (SF-295 CNS): 32.8 µM
TGI (A549 NSCLC): 29.2 µM
TGI (HOP-62 NSCLC): 37 µM
TGI (TK-10 renal): 28.9 µM
TGI (NCI/ADR-RES ovarian): 51.3 µM
TGI (LOX IMVI melanoma): 35.3 µM
TGI (MDA-MB-231 breast): 31.9 µM
TGI (HCT-116 colon): 30.4 µM
TGI (PC-3 prostate): 29.5 µM
TGI (CCRF-CEM leukemia): 44.7 µM
TGI (MALME-3M melanoma): 33.2 µM
TGI (SW-620 colon): 41 µM
TGI (OVCAR-8 ovarian): 34.4 µM
TGI (SK-MEL-5 melanoma): 26.7 µM
TGI (786-0 renal): 32 µM
TGI (UACC-62 melanoma): > 100 µM
TGI (NCI-H522 lung): 39.3 µM
TGI (MCF7 breast): > 100 µM
TGI (UO-31 renal): 27.4 µM
TGI (MOLT-4 leukemia): 29.9 µM
TGI (T-47D breast): 36.5 µM
TGI (KM12 colon): 28.6 µM
TGI (RXF 393 renal): 17.7 µM
TGI (RPMI-8226 leukemia): 22.2 µM
TGI (SK-MEL-2 melanoma): 32.9 µM
TGI (NCI-H23 lung): 36.4 µM
TGI (BT-549 breast): 35.1 µM
TGI (COLO 205 colon): 29.1 µM
TGI (A498 renal): > 100 µM
TGI (M14 melanoma): 29.1 µM
TGI (DU-145 prostate): 29 µM
TGI (MDA-N): 35.3 µM
TGI (OVCAR-3 ovarian): 30.6 µM
TGI (SN12C renal): 32.7 µM
TGI (U251 CNS): 29.8 µM
TGI (MDA-MB-435): 31.7 µM
TGI (SF-268 CNS): 33.6 µM
TGI (NCI-H460 lung): 30.1 µM
